From patent publication US20250042886A1, “BIS(HETERO)ARYL THIOETHER OXADIAZINES AS FUNGICIDAL COMPOUNDS” (Bayer Aktiengesellschaft, priority 2021, published 2025)

How the values were obtained:
[1] = Measurement of Log P values by HPLC on reversed phase columns (EEC directive 79/831 Annex V.A8); type: physicochemical; conditions: Table 1, compounds of formula (I); method [a]: LC-UV, acidic range, 0.1% formic acid in water and acetonitrile
Botrytis cinerea [2] = experiment: In vivo preventive test on Botrytis cinerea (grey mould); conditions: 500 ppm of active ingredient, sprayed on young gherkin or cabbage plants 24 h before inoculation, evaluated 4 to 5 days after inoculation, read-out: efficacy
Outline: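 Compounds in DMSO/acetone/Tween 80 were diluted in water and sprayed onto young gherkin or cabbage plants; controls got solvent only. After 24 h, leaves were sprayed with an aqueous Botrytis cinerea spore suspension.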

Sphaerotheca fuliginea = experiment: In vivo preventive test on Sphaerotheca fuliginea (powdery mildew on cucurbits); conditions: Podosphaera fuliginea, 192 h; 500 ppm of active ingredient, sprayed on young gherkin plants 24 h before inoculation; evaluated 8 days after inoculation; read-out: efficacy
Method: (§1) B-3. […] The active ingredients were made soluble and homogenized in a mixture of Dimethyl sulfoxide/Acetone//Tween® 80 and then diluted in water to the desired concentration. The young plants of gherkin were treated by spraying the active ingredient prepared as described above. Control plants were treated only with an aqueous solution of Acetone/Dimethyl sulfoxide/Tween® 80. After 24 hours, the plants were contaminated by spraying the leaves with an aqueous suspension of Sphaerotheca fuliginea spores.

Pyricularia oryzae = experiment: microbe, parasite or virus in culture; type: cell-based; conditions: 120 h, read-out: efficacy (inhibition of fungal growth), 20 ppm of active ingredient, liquid culture, 5 days incubation
[3] = system: Colletotrichum lindemuthianum; experiment: Colletotrichum lindemuthianum in vitro cell test; type: cell-based; conditions: 144 h, 20 ppm of active ingredient, liquid culture, 6 days incubation, read-out: efficacy (inhibition of fungal growth)
Outline: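 C. lindemuthianum spores in liquid glucose–peptone–yeast extract medium were exposed to compounds dissolved in DMSO. After 6 days, mycelial growth was measured by absorbance, and inhibition was calculated against compound-free control wells.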

Botrytis cinerea [4] = experiment: Botrytis cinerea in vitro cell test; type: cell-based; conditions: 144 h, 20 ppm of active ingredient, liquid culture, 6 days incubation, read-out: efficacy (inhibition of fungal growth)
Outline: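 Compounds from DMSO stocks added at a range of concentrations to a defined mineral-salt/sucrose liquid medium inoculated with B. cinerea spores. After 6 days' incubation, mycelium growth was read by absorbance; inhibition of germination and growth was calculated against fungicide-free control wells.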

[5] = system: Colletotrichum lindemuthianum; experiment: In vivo preventive test on Colletotrichum lindemuthianum (leaf spot on bean); conditions: 168 h, 500 ppm of active ingredient, sprayed on young bean plants 24 h before inoculation, evaluated 7 days after inoculation, read-out: efficacy
Method: as §1, with “B-4.” for “B-3.”, “bean” for “gherkin”, “Colletotrichum lindemuthianum” for “Sphaerotheca fuliginea”

Pyrenophora teres = Pyrenophora teres in vitro cell test; type: cell-based; conditions: 144 h, 20 ppm of active ingredient, liquid culture, 6 days incubation, read-out: efficacy (inhibition of fungal growth)
Outline: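 Compounds in DMSO were added to P. teres spore suspensions in glucose/peptone/yeast-extract liquid medium, testing inhibition of spore germination and mycelium growth. After 6 days, mycelium growth was read by absorbance. Inhibition was calculated relative to fungicide-free control wells.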

Septoria tritici = Septoria tritici in vitro cell test; type: cell-based; conditions: Zymoseptoria tritici, 168 h; 20 ppm of active ingredient; liquid culture, 7 days incubation; read-out: efficacy (inhibition of fungal growth)
Method: B-11. Septoria tritici In Vitro Cell Test • Solvent: DMSO • Culture medium: 1 g KH2PO4 (VWR), 1 g K2HPO4 (VWR), 0.5 g Urea (VWR), 3 g KNO3 (Prolabo), 10 g saccharose (VWR), 0.5 g MgSO4, 7H2O (Sigma), 0.07 g CaCl2, 2H2O (Prolabo), 0.2 mg MnSO4, H2O (Sigma), 0.6 mg CuSO4, 5H2O (Sigma), 7.9 mg ZnSO4, 7H2O (Sigma), 0.1 mg H3BO3 (Merck), 0.14 mg NaMoO4, 2H2O (Sigma), 2 mg thiamine (Sigma), 0.1 mg biotine (VWR), 4 mg FeSO4, 7H2O (Sigma), QSP 1 liter • Inoculum: spore suspension Fungicides were solubilized in DMSO and the solution used to prepare the required range of concentrations. […] A spore suspension of S. tritici was prepared and diluted to the desired spore density. Fungicides were evaluated for their ability to inhibit spore germination and mycelium growth in liquid culture assay. The compounds were added in the desired concentration to the culture medium with spores. […] Inhibition of fungal growth was determined by comparing the absorbance values in wells containing the fungicides with the absorbance in control wells without fungicides.

Alternaria alternata = Alternaria alternata in vitro cell test; type: cell-based; conditions: 120 h, 20 ppm of active ingredient, liquid culture, 5 days incubation, read-out: efficacy (inhibition of fungal growth)
Outline: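 Spores in glucose/mycological peptone/yeast extract liquid medium were exposed to DMSO-dissolved fungicides for 5 days. Inhibition of germination and mycelial growth was read spectrophotometrically, comparing absorbance against fungicide-free control wells.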

Fusarium culmorum = Fusarium culmorum in vitro cell test; type: cell-based; conditions: 120 h, 20 ppm of active ingredient, liquid culture, 5 days incubation, read-out: efficacy (inhibition of fungal growth)
Outline: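 Spores in liquid mineral-salts/saccharose medium exposed to compounds (DMSO ≤1% final) for 5 days. Mycelium growth measured spectrometrically, with inhibition derived from absorbance relative to fungicide-free control wells.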

Alternaria brassicae = experiment: In vivo preventive test on Alternaria brassicae (leaf spot on radish or cabbage); conditions: 500 ppm of active ingredient, sprayed on young radish or cabbage plants 24 h before inoculation, evaluated 3 to 4 days after inoculation, read-out: efficacy
Outline: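 Young radish or cabbage plants sprayed preventively with compound formulated in DMSO/acetone/Tween 80 and diluted in water; vehicle-treated plants as controls. Leaves inoculated by spraying an aqueous Alternaria brassicae spore suspension 24 h after treatment.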

SMILES	chromatographic logP [1]	pest or weed control at 500 ppm (Botrytis cinerea [2]) [%]	pest or weed control at 500 ppm (Sphaerotheca fuliginea) [%]	inhibition at 20 ppm (Pyricularia oryzae) [%]	inhibition at 20 ppm [3] [%]	inhibition at 20 ppm (Botrytis cinerea [4]) [%]	pest or weed control at 500 ppm [5] [%]	inhibition at 20 ppm (Pyrenophora teres) [%]	inhibition at 20 ppm (Septoria tritici) [%]	inhibition at 20 ppm (Alternaria alternata) [%]	inhibition at 20 ppm (Fusarium culmorum) [%]	pest or weed control at 500 ppm (Alternaria brassicae) [%]
Clc1ccc(C[C@@H]2CON=C(c3cc(Cl)nnc3Sc3cccc(Br)c3)N2)c(Cl)c1 (racemic) [Compound I-005]	4.88	90 to 100	80 to 89	90 to 100	90 to 100	90 to 100						
Cc1ccc(C[C@H]2CON=C(c3nc(C)ncc3Sc3cccc(C(F)(F)F)c3)N2)c(C)c1 (racemic) [Compound I-007]	5.21	90 to 100	90 to 100	70 to 79	90 to 100	90 to 100	90 to 100	90 to 100	80 to 89			
Clc1cccc(Sc2cnc(Cl)cc2C2=NOC[C@@H](Cc3ccc(Cl)cc3Cl)N2)c1 (racemic) [Compound I-008]	4.9			90 to 100	90 to 100	90 to 100		90 to 100	90 to 100	80 to 89	90 to 100	
COc1cccc(Sc2cnc(C)nc2C2=NOC[C@H](Cc3ccc(C)cc3C)N2)c1 (racemic) [Compound I-009]	4.67	80 to 89			80 to 89	90 to 100	70 to 79		70 to 79			80 to 89
Cc1cccc(Sc2cnc(C)nc2C2=NOC[C@@H](Cc3ccc(C)cc3Cl)N2)c1 (racemic) [Compound I-010]	5.17	90 to 100	90 to 100		90 to 100		90 to 100	90 to 100	90 to 100		90 to 100	80 to 89
Cc1cccc(Sc2cnc(Cl)cc2C2=NOC[C@@H](Cc3ccc(Cl)cc3Cl)N2)c1 (racemic) [Compound I-011]	4.86	90 to 100		90 to 100	90 to 100	90 to 100		90 to 100	90 to 100	70 to 79	90 to 100	
COc1cccc(Sc2cnc3ccccc3c2C2=NOC[C@H](Cc3ccc(C)cc3C)N2)c1 (racemic) [Compound I-012]	4.06				90 to 100	90 to 100		90 to 100	70 to 79			
Cc1ccc(C[C@H]2CON=C(c3nc(C)ncc3Sc3cccc(C(F)(F)F)c3)N2)c(Cl)c1 (racemic) [Compound I-013]	5.28	90 to 100	90 to 100		90 to 100	90 to 100	90 to 100		90 to 100			80 to 89
FC(F)(F)c1cccc(Sc2nnc(Cl)cc2C2=NOC[C@H](Cc3ccc(Cl)cc3Cl)N2)c1 (racemic) [Compound I-016]	4.86			80 to 89	90 to 100	90 to 100		90 to 100	70 to 79			
Cc1ccc(CC2CON=C(c3cc(Cl)nnc3Sc3cccc(C(F)(F)F)c3)N2)c(C)c1 (racemic) [Compound I-017, (5RS)-3-(6-chloro-3-{[3-(trifluoromethyl)phenyl]sulfanyl}pyridazin-4-yl)-5-(2,4-dimethylbenzyl)-5,6-dihydro-4H-1,2,4-oxadiazine]	5.27	90 to 100	90 to 100	80 to 89	90 to 100	90 to 100	90 to 100		90 to 100	80 to 89		90 to 100
Cc1ccc(C[C@@H]2CON=C(c3cc(Cl)nnc3S(=O)(=O)c3ccc(C(F)(F)F)cc3)N2)c(C)c1 (racemic) [Compound I-018]	4.28			90 to 100	80 to 89				90 to 100			
Cc1ccc(C[C@H]2CON=C(c3c(Sc4cccc(Cl)c4)cnc4ccccc34)N2)c(C)c1 (racemic) [Compound I-024]	4.46			90 to 100	90 to 100	90 to 100		90 to 100	90 to 100	90 to 100	90 to 100	
FC(F)(F)c1ccc(Sc2nnc(Cl)cc2C2=NOC[C@@H](Cc3ccc(Br)cc3Cl)N2)cc1 (racemic) [Compound I-035]	5	90 to 100	80 to 89				90 to 100					
